In ChEMBL document CHEMBL3244132, “Semisynthetic aminoglycoside antibacterials. 6. Synthesis of sisomicin, Antibiotic G-52, and novel 6'-substituted analogues of sisomicin from aminoglycoside 66-40C” (J Med Chem, 1978):
Converted amounts (≈) assume the structure as drawn. The source made the active and inactive calls. No cut-off for these calls is given here.

Key:
[1] = tested on: Klebsiella pneumoniae; experiment: Antimicrobial activity against Klebsiella pneumoniae Georgetown 3694 carrying APH(2'') by tube dilution method; format: functional
[2] = tested on: Providencia rettgeri; experiment: Antimicrobial activity against Providencia rettgeri Membel by tube dilution method; format: functional
[3] = tested on: Histomonas meleagridis; experiment: Antiprotozoal activity against Histomonas meleagridis; format: functional
[4] = tested on: Pseudomonas aeruginosa; experiment: Antimicrobial activity against Pseudomonas aeruginosa St. M. 762 by tube dilution method; format: functional
[5] = tested on: Klebsiella pneumoniae; experiment: Antimicrobial activity against Klebsiella pneumoniae Adler 17 carrying APH(3')-I by tube dilution method; format: functional
[6] = tested on: Salmonella typhimurium; experiment: Antimicrobial activity against Salmonella typhimurium Gr. B. by tube dilution method; format: functional, Salmonella enterica subsp. enterica serovar Typhimurium; settings: Salmonella enterica
[7] = tested on: Escherichia coli; experiment: Antimicrobial activity against Escherichia coli ATCC 10536 by tube dilution method; format: functional
[8] = tested on: Trichomonas vaginalis; experiment: Antiprotozoal activity against Trichomonas vaginalis after 48 hrs; format: functional
[9] = tested on: Staphylococcus aureus; experiment: Antimicrobial activity against Staphylococcus aureus 209 P by tube dilution method; format: functional
[10] = tested on: Entamoeba histolytica; experiment: Antiprotozoal activity against Entamoeba histolytica JH; format: functional
[11] = tested on: Providencia rettgeri; experiment: Antimicrobial activity against Providencia rettgeri Anderson by tube dilution method; format: functional
[12] = tested on: Escherichia coli; experiment: Antimicrobial activity against Escherichia coli Baker 2 carrying APH(3')-I by tube dilution method; format: functional
[13] = tested on: Providencia; experiment: Antimicrobial activity against Providencia 164 carrying AAC(2')-I by tube dilution method; format: functional
[14] = Acute toxicity in albino CF1 mouse; format: organism-based; settings: in vivo
[15] = tested on: Staphylococcus aureus; experiment: Antimicrobial activity against Staphylococcus aureus Ziegler by tube dilution method; format: functional
[16] = tested on: Streptococcus pyogenes; experiment: Antimicrobial activity against Streptococcus pyogenes Group A Cruz by tube dilution method; format: functional
[17] = tested on: Serratia marcescens; experiment: Antimicrobial activity against Serratia marcescens Dalton by tube dilution method; format: functional
[18] = tested on: Streptococcus pyogenes; experiment: Antimicrobial activity against Streptococcus pyogenes C by tube dilution method; format: functional
[19] = tested on: Staphylococcus aureus; experiment: Antimicrobial activity against Staphylococcus aureus Wood by tube dilution method; format: functional
[20] = tested on: Escherichia coli; experiment: Antimicrobial activity against Escherichia coli HL97/W677 carrying AAC(6') by tube dilution method; format: functional
[21] = tested on: Escherichia coli; experiment: Antimicrobial activity against Escherichia coli LA290R55 carrying ANT(2'') by tube dilution method; format: functional
[22] = tested on: Pseudomonas aeruginosa; experiment: Antimicrobial activity against Pseudomonas aeruginosa Stone 130 carrying AAC(3) by tube dilution method; format: functional
[23] = tested on: Pseudomonas aeruginosa; experiment: Antimicrobial activity against Pseudomonas aeruginosa GN 315 carrying AAC(6') by tube dilution method; format: functional
[24] = tested on: Pseudomonas aeruginosa; experiment: Antimicrobial activity against Pseudomonas aeruginosa St. M. 1395 by tube dilution method; format: functional
[25] = tested on: Proteus mirabilis; experiment: Antimicrobial activity against Proteus mirabilis Harding by tube dilution method; format: functional
[26] = tested on: Escherichia coli; experiment: Antimicrobial activity against Escherichia coli JR88 carrying AAC(3) by tube dilution method; format: functional
[27] = tested on: Streptococcus pyogenes; experiment: Antimicrobial activity against Streptococcus pyogenes Alvarez by tube dilution method; format: functional
[28] = tested on: Bacillus subtilis; experiment: Antimicrobial activity against Bacillus subtilis ATCC 6633 by tube dilution method; format: functional
[29] = tested on: Staphylococcus aureus; experiment: Antimicrobial activity against Staphylococcus aureus 59N by tube dilution method; format: functional
[30] = tested on: Streptococcus pyogenes; experiment: Antimicrobial activity against Streptococcus pyogenes 27 by tube dilution method; format: functional
[31] = tested on: Heligmosomoides polygyrus; experiment: Anthelmintic activity against Nematospiroides dubius infected in mouse at 195 mg/kg qd for 5 days administered after 2 weeks of infection; format: functional, organism-based; parameters: dose 195 mg/kg
[32] = tested on: Rodentolepis nana; experiment: Anthelmintic activity against Hymenolepis nana infected in mouse at 195 mg/kg qd for 5 days administered after 2 weeks of infection; format: functional, organism-based; parameters: dose 195 mg/kg
[33] = tested on: Syphacia obvelata; experiment: Anthelmintic activity against Syphacia obvelata infected in mouse at 195 mg/kg qd for 5 days administered after 2 weeks of infection; format: functional, organism-based; parameters: dose 195 mg/kg
[34] = tested on: Histomonas meleagridis; experiment: Antiprotozoal activity against Histomonas meleagridis at 20 ug/ml; format: functional

SMILES	MIC [1]	MIC [2]	MIC [4]	MIC [5]	MIC [6]	MIC [7]	MIC [9]	MIC [11]	MIC [12]	MIC [13]	LD50 [14]	MIC [15]	MIC [16]	MIC [17]	MIC [18]	MIC [19]	MIC [20]	MIC [21]	MIC [22]	MIC [23]	other results
CN[C@@H]1[C@@H](O)[C@@H](O[C@@H]2[C@@H](O)[C@H](O[C@H]3OC(CNCCO)=CC[C@H]3N)[C@@H](N)C[C@H]2N)OC[C@]1(C)O	> 25 µg/mL	0.75 µg/mL (≈ 1.53 µM)	0.3 µg/mL (≈ 0.61 µM)	0.075 µg/mL (≈ 0.153 µM)	0.75 µg/mL (≈ 1.53 µM)	0.075 µg/mL (≈ 0.153 µM)	0.03 µg/mL (≈ 0.061 µM)	> 25 µg/mL	3 µg/mL (≈ 6.1 µM)	> 25 µg/mL	135 mg/kg	0.03 µg/mL (≈ 0.061 µM)	17.5 µg/mL (≈ 35.6 µM)	0.75 µg/mL (≈ 1.53 µM)	> 25 µg/mL	0.03 µg/mL (≈ 0.061 µM)	0.75 µg/mL (≈ 1.53 µM)	7.5 µg/mL (≈ 15.3 µM)	> 25 µg/mL	0.3 µg/mL (≈ 0.61 µM)	Activity [3]: inactive; Activity [8]: inactive; Activity [10]: inactive; MIC [24]: 0.3 µg/mL (≈ 0.61 µM); MIC [25]: 0.3 µg/mL (≈ 0.61 µM); MIC [26]: > 25 µg/mL; MIC [27]: 17.5 µg/mL (≈ 35.6 µM); MIC [28]: 0.3 µg/mL (≈ 0.61 µM)
CN[C@@H]1[C@@H](O)[C@@H](O[C@@H]2[C@@H](O)[C@H](O[C@H]3OC(CNC(C)(C)C)=CC[C@H]3N)[C@@H](N)C[C@H]2N)OC[C@]1(C)O	> 25 µg/mL	3 µg/mL (≈ 5.96 µM)	7.5 µg/mL (≈ 14.9 µM)	7.5 µg/mL (≈ 14.9 µM)	3 µg/mL (≈ 5.96 µM)	0.75 µg/mL (≈ 1.49 µM)	0.03 µg/mL (≈ 0.0596 µM)	> 25 µg/mL	7.5 µg/mL (≈ 14.9 µM)	17.5 µg/mL (≈ 34.7 µM)	90 mg/kg	0.03 µg/mL (≈ 0.0596 µM)	3 µg/mL (≈ 5.96 µM)	7.5 µg/mL (≈ 14.9 µM)	17.5 µg/mL (≈ 34.7 µM)	0.03 µg/mL (≈ 0.0596 µM)	3 µg/mL (≈ 5.96 µM)	17.5 µg/mL (≈ 34.7 µM)	> 25 µg/mL	7.5 µg/mL (≈ 14.9 µM)	Activity [3]: inactive; Activity [8]: inactive; Activity [10]: inactive; MIC [29]: 0.75 µg/mL (≈ 1.49 µM); MIC [30]: 7.5 µg/mL (≈ 14.9 µM); MIC [24]: 17.5 µg/mL (≈ 34.7 µM); MIC [25]: 3 µg/mL (≈ 5.96 µM); MIC [26]: > 25 µg/mL; MIC [27]: > 25 µg/mL; MIC [28]: < 0.01 µg/mL
CNCC1=CC[C@@H](N)[C@@H](O[C@H]2[C@H](O)[C@@H](O[C@H]3OC[C@](C)(O)[C@H](NC)[C@H]3O)[C@H](N)C[C@@H]2N)O1	> 25 µg/mL	3 µg/mL (≈ 6.5 µM)	0.3 µg/mL (≈ 0.65 µM)	0.075 µg/mL (≈ 0.162 µM)	3 µg/mL (≈ 6.5 µM)	0.3 µg/mL (≈ 0.65 µM)	< 0.01 µg/mL	> 25 µg/mL	0.75 µg/mL (≈ 1.62 µM)	> 25 µg/mL	50 mg/kg	0.03 µg/mL (≈ 0.065 µM)	0.3 µg/mL (≈ 0.65 µM)	0.3 µg/mL (≈ 0.65 µM)	3 µg/mL (≈ 6.5 µM)	< 0.01 µg/mL	0.75 µg/mL (≈ 1.62 µM)	17.5 µg/mL (≈ 37.9 µM)	> 25 µg/mL	0.3 µg/mL (≈ 0.65 µM)	Activity [3]: inactive; Activity [8]: inactive; Activity [10]: inactive; MIC [29]: 0.03 µg/mL (≈ 0.065 µM); MIC [30]: 0.3 µg/mL (≈ 0.65 µM); MIC [24]: 0.3 µg/mL (≈ 0.65 µM); MIC [25]: 0.75 µg/mL (≈ 1.62 µM); MIC [26]: > 25 µg/mL; MIC [27]: > 25 µg/mL; MIC [28]: < 0.01 µg/mL
CN[C@@H]1[C@@H](O)[C@@H](O[C@@H]2[C@@H](O)[C@H](O[C@H]3OC(CN)=CC[C@H]3N)[C@@H](N)C[C@H]2N)OC[C@]1(C)O [SISOMICIN]	7.5 µg/mL (≈ 16.8 µM)	3 µg/mL (≈ 6.7 µM)	0.3 µg/mL (≈ 0.67 µM)	0.3 µg/mL (≈ 0.67 µM)	0.3 µg/mL (≈ 0.67 µM)	0.75 µg/mL (≈ 1.68 µM)	0.03 µg/mL (≈ 0.067 µM)	> 25 µg/mL	0.75 µg/mL (≈ 1.68 µM)	3 µg/mL (≈ 6.7 µM)	34 mg/kg	0.03 µg/mL (≈ 0.067 µM)	7.5 µg/mL (≈ 16.8 µM)	0.3 µg/mL (≈ 0.67 µM)	17.5 µg/mL (≈ 39.1 µM)	0.03 µg/mL (≈ 0.067 µM)	7.5 µg/mL (≈ 16.8 µM)	7.5 µg/mL (≈ 16.8 µM)	17.5 µg/mL (≈ 39.1 µM)	7.5 µg/mL (≈ 16.8 µM)	Activity [3]: Active; Activity [8]: Active; Activity [10]: Active; MIC [29]: 0.03 µg/mL (≈ 0.067 µM); MIC [30]: 3 µg/mL (≈ 6.7 µM); MIC [24]: 0.3 µg/mL (≈ 0.67 µM); MIC [25]: 0.3 µg/mL (≈ 0.67 µM); MIC [26]: 17.5 µg/mL (≈ 39.1 µM); MIC [27]: 7.5 µg/mL (≈ 16.8 µM); MIC [28]: < 0.01 µg/mL
CN[C@@H]1[C@@H](O)[C@@H](O[C@@H]2[C@@H](O)[C@H](O[C@H]3OC(CNCCc4ccccc4)=CC[C@H]3N)[C@@H](N)C[C@H]2N)OC[C@]1(C)O	> 25 µg/mL	> 25 µg/mL	> 25 µg/mL	> 25 µg/mL	17.5 µg/mL (≈ 31.7 µM)	0.75 µg/mL (≈ 1.36 µM)	3 µg/mL (≈ 5.44 µM)	> 25 µg/mL	7.5 µg/mL (≈ 13.6 µM)	> 25 µg/mL	30 mg/kg	7.5 µg/mL (≈ 13.6 µM)	> 25 µg/mL	> 25 µg/mL	> 25 µg/mL	3 µg/mL (≈ 5.44 µM)	0.75 µg/mL (≈ 1.36 µM)	> 25 µg/mL	> 25 µg/mL	> 25 µg/mL	Activity [3]: inactive; Activity [8]: inactive; Activity [10]: inactive; MIC [29]: 3 µg/mL (≈ 5.44 µM); MIC [30]: 17.5 µg/mL (≈ 31.7 µM); MIC [24]: > 25 µg/mL; MIC [25]: > 25 µg/mL; MIC [26]: > 25 µg/mL; MIC [27]: > 25 µg/mL; MIC [28]: 0.03 µg/mL (≈ 0.0544 µM)
CN[C@@H]1[C@@H](O)[C@@H](O[C@@H]2[C@@H](O)[C@H](O[C@H]3OC(CO)=CC[C@H]3N)[C@@H](N)C[C@H]2N)OC[C@]1(C)O	> 25 µg/mL	> 25 µg/mL	3 µg/mL (≈ 6.69 µM)	3 µg/mL (≈ 6.69 µM)	3 µg/mL (≈ 6.69 µM)	0.75 µg/mL (≈ 1.67 µM)	0.3 µg/mL (≈ 0.669 µM)	> 25 µg/mL	17.5 µg/mL (≈ 39 µM)	> 25 µg/mL	65 mg/kg	0.3 µg/mL (≈ 0.669 µM)	> 25 µg/mL	3 µg/mL (≈ 6.69 µM)	> 25 µg/mL	0.3 µg/mL (≈ 0.669 µM)	0.3 µg/mL (≈ 0.669 µM)	> 25 µg/mL	> 25 µg/mL	> 25 µg/mL	Activity [31]: inactive; MIC [8]: < 10 µg/mL; MIC [10]: 10 µg/mL (≈ 22.3 µM); Activity [32]: inactive; Activity [33]: inactive; MIC [29]: 0.075 µg/mL (≈ 0.167 µM); MIC [30]: > 25 µg/mL; MIC [24]: 17.5 µg/mL (≈ 39 µM); MIC [25]: 3 µg/mL (≈ 6.69 µM); MIC [26]: > 25 µg/mL; MIC [27]: > 25 µg/mL; Activity [34]: inactive; MIC [28]: 0.075 µg/mL (≈ 0.167 µM)
